Test results published in ChEMBL document CHEMBL5233242, “Dihydrofolate reductase inhibitors for use as antimicrobial agents” (Eur J Med Chem, 2020).
Values after ≈ are worked out from the molar mass of the structure shown. Values joined by “and” are separate entries in the source; they are usually repeats but may differ in a detail not shown here. Equal values may be shown once.

Key:
[1] = Inhibition of Staphylococcus aureus DHFR F98Y mutant
Dihydrofolate reductase [2] = target: T1, Dihydrofolate reductase (Mycobacterium tuberculosis, UniProt P9WNX1)
T1 sequence (P9WNX1 whole entry): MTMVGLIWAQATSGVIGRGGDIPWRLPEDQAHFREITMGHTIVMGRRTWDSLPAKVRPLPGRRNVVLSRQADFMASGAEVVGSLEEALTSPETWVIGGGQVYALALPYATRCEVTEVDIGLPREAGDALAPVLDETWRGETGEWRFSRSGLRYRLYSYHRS
Description: Inhibition of Mycobacterium tuberculosis DHFR

[3] = test system: Mycobacterium tuberculosis; test: Antibacterial activity against Mycobacterium tuberculosis H37Rv incubated for 7 days by resazurin dye based broth microdilution assay; format: functional; conditions: 168 h, time 7 day
[4] = test system: Mycobacterium tuberculosis; test: Antibacterial activity against Mycobacterium tuberculosis H37Rv; format: functional
[5] = test system: Mycobacterium tuberculosis; test: Antibacterial activity against Mycobacterium tuberculosis Erdman; format: functional
Escherichia coli [6] = test: Antibacterial activity against Escherichia coli NR698; format: functional
Escherichia coli [7] = test: Antibacterial activity against Escherichia coli ATCC 25922; format: functional
[8] = Cytotoxicity against african green monkey Vero cells; format: toxicity, cell-based; conditions: chlorocebus sabaeus
Dihydrofolate reductase [9] = target: T2, Dihydrofolate reductase (Staphylococcus aureus, UniProt P0A017); test: Inhibition of wild type Staphylococcus aureus DHFR
T2 sequence (P0A017 whole entry): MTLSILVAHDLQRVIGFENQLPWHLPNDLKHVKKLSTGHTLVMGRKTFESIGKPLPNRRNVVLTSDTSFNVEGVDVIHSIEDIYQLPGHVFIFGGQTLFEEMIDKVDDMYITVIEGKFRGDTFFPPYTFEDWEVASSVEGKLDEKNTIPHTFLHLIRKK

Staphylococcus aureus [10] = test: Antibacterial activity against Staphylococcus aureus ATCC 43300 harboring wild type DHFR; format: functional
Staphylococcus aureus [11] = test: Antibacterial activity against Staphylococcus aureus harboring DHFR F98Y mutant; format: functional
Dihydrofolate reductase [12] = target: T2, Dihydrofolate reductase; test: Inhibition of Staphylococcus aureus DHFR
[13] = test system: Mycobacterium tuberculosis; test: Antibacterial activity against Mycobacterium tuberculosis H37Ra; format: functional
Staphylococcus aureus [14] = test: Antibacterial activity against methicillin resistant Staphylococcus aureus CCARM3167; format: functional
Staphylococcus aureus [15] = test: Antibacterial activity against Staphylococcus aureus RN4220 harboring wild type DHFR; format: functional
Staphylococcus aureus [16] = test: Antibacterial activity against Staphylococcus aureus ATCC 29213 harboring wild type DHFR; format: functional
[17] = Inhibition of Pseudomonas aeruginosa DHFR
Pseudomonas aeruginosa [18] = test: Antibacterial activity against Pseudomonas aeruginosa PA01; format: functional
Pseudomonas aeruginosa [19] = test: Synergistic antibacterial activity against Pseudomonas aeruginosa PA01 assessed as fractional inhibitory concentration index in presence of quercetin; format: functional
Pseudomonas aeruginosa [20] = test: Synergistic antibacterial activity against Pseudomonas aeruginosa PA01 assessed as fractional inhibitory concentration index in presence of myricetin; format: functional
Pseudomonas aeruginosa [21] = test: Synergistic antibacterial activity against Pseudomonas aeruginosa PA01 assessed as fractional inhibitory concentration index in presence of protocatechuic acid; format: functional
Pseudomonas aeruginosa [22] = test: Synergistic antibacterial activity against Pseudomonas aeruginosa PA01 assessed as fractional inhibitory concentration index in presence of gallic acid; format: functional

SMILES: CCC[C@H]1c2ccccc2C=NN1C(=O)/C=C/c1cc(Cc2cnc(N)nc2N)cc(OC)c1OC
- IC50 [1]: 0.0018 µM

SMILES: COc1ccc(-c2nc3ccccc3c(=O)[nH]2)cc1
- IC50 (Dihydrofolate reductase [2]): 49.1 µM
- MIC [3]: 125 µM and 31.5 µg/mL

SMILES: O=c1[nH]c(=O)c2c(ncn2Cc2ccccc2)[nH]1
- IC50 (Dihydrofolate reductase [2]): 38.6 µM
- MIC [3]: 130 µM and 31.5 µg/mL

SMILES: CCc1nc(N)nc(N)c1C#C[C@H](C)c1cc(OC)cc(-c2ccc(C(=O)O)cc2)c1
- MIC [4]: < 0.072 µM
- MIC [5]: < 0.072 µM

SMILES: CCc1nc(N)nc(N)c1C#C[C@@H](C)c1cc(OC)cc(-c2ccc(C(=O)O)cc2)c1
- MIC (Escherichia coli [6]): 0.0075 µM (≈ 0.00312 µg/mL)
- MIC (Escherichia coli [7]): 24 µM (≈ 10 µg/mL)

SMILES: CCc1nc(N)nc(N)c1C#CCc1cc(OC)cc(-c2ccc(C(=O)O)cc2)c1
- MIC [4]: 0.311 µM (≈ 0.125 µg/mL)
- MIC [5]: 1.24 µM (≈ 0.5 µg/mL)

SMILES: Nc1nc(N)nc(-c2ccc(OCc3ccc(Cl)cc3)cc2)n1
- MIC [4]: 1.76 µM (≈ 0.577 µg/mL)
- CC50 [8]: 464 µM

SMILES: CCCCc1nc(Cl)c(C2NC(=O)NC(C)=C2C(=O)Nc2ccc(F)cc2)[nH]1 (stereo not drawn)
- MIC [4]: 0.96 µM (≈ 0.39 µg/mL)
- IC50 (Dihydrofolate reductase [2]): > 24.6 µM

SMILES: CCc1nc(N)nc(N)c1C#C[C@H](C)c1cc(OC)cc(-c2ccncc2)c1
- IC50 (Dihydrofolate reductase [9]): 0.015 µM
- IC50 [1]: 0.51 µM
- MIC (Staphylococcus aureus [10]): 0.874 µM (≈ 0.326 µg/mL)
- MIC (Staphylococcus aureus [11]): 14 µM (≈ 5.22 µg/mL)

SMILES: Cc1ccc(CN2C(=O)/C(=C3\SC(=S)N(C(=O)O)C3=O)c3ccccc32)cc1
- IC50 (Dihydrofolate reductase [12]): 0.46 µM

SMILES: COc1cc(-c2nc(N)nc(N)n2)ccc1OCc1ccc(F)cc1
- MIC [4]: 3.39 µM (≈ 1.16 µg/mL)
- CC50 [8]: 360 µM

SMILES: Nc1nc(N)c(-c2ccc(C(=O)Nc3cccc(OC(F)(F)F)c3)cc2)c(OCc2cncs2)n1
- MIC [13]: 12.4 µM and 6.25 µg/mL

SMILES: COc1ccc(-c2nc(N)nc(N)n2)cc1Oc1ccc(Cl)cc1
- MIC [4]: 4.92 µM (≈ 1.69 µg/mL)
- CC50 [8]: 335 µM

SMILES: Nc1nc(N)c2c(ccc3c2ccn3Cc2ccc3ccccc3c2)n1
- MIC95 [4]: 3.12 µM (≈ 1.06 µg/mL)
- IC50 (Dihydrofolate reductase [2]): 0.00096 µM

SMILES: CC[C@@H]1CC[C@H]2C(CC)(CC)[C@H](O)CC[C@]2(CC)[C@@]12Cc1c(O)cc3c(c1O2)COC3=O
- MIC (Staphylococcus aureus [14]): 72.3 µM (≈ 32 µg/mL)
- IC50 (Dihydrofolate reductase [9]): 41.5 µM
- MIC (Staphylococcus aureus [15]): 72.3 µM (≈ 32 µg/mL)

SMILES: CCc1nc(N)nc(N)c1C#C[C@@H](C)c1cc(OC)cc(-c2ccncc2)c1
- IC50 (Dihydrofolate reductase [9]): 0.018 µM
- IC50 [1]: 0.111 µM
- MIC (Staphylococcus aureus [10]): 0.11 µM (≈ 0.0411 µg/mL)
- MIC (Staphylococcus aureus [11]): 1.75 µM (≈ 0.653 µg/mL)

SMILES: CCCc1cc(N)cc(N)c1Cc1cc(/C=C/C(=O)N2N=Cc3ccccc3C2C=C(C)C)c(OC)c(OC)c1 (stereo not drawn)
- Ki (Dihydrofolate reductase [9]): 0.004 µM
- MIC (Staphylococcus aureus [16]): 3.72 µM (≈ 2 µg/mL)

SMILES: Nc1nc(N)c2cc(C(F)(F)F)ccc2n1
- MIC99 [4]: 207 µM (≈ 47.2 µg/mL)

SMILES: O=C(O[C@@H]1Cc2c(O)cc(O)cc2O[C@@H]1c1cc(O)c(O)c(O)c1)c1cc(O)c(O)c(O)c1 [EPIGALOCATECHIN GALLATE]
- MIC [4]: 4.25 µM (≈ 1.95 µg/mL)
- IC50 (Dihydrofolate reductase [2]): 10.9 µM

SMILES: O=C(O)c1cc(O)c(O)c(O)c1 [GALLIC ACID]
- IC50 [17]: 9620 µM

SMILES: O=c1c(O)c(-c2cc(O)c(O)c(O)c2)oc2cc(O)cc(O)c12 [MYRICETIN]
- IC50 [17]: 520 µM
- MIC (Pseudomonas aeruginosa [18]): 1550 µM (≈ 493 µg/mL)

SMILES: O=C(O)c1ccc(O)c(O)c1 [PROTOCATECHUIC ACID]
- IC50 [17]: 10700 µM

SMILES: O=c1c(O)c(-c2ccc(O)c(O)c2)oc2cc(O)cc(O)c12 [QUERCETIN]
- IC50 [17]: 595 µM
- MIC (Pseudomonas aeruginosa [18]): 1650 µM (≈ 499 µg/mL)

SMILES: Cc1cc(NS(=O)(=O)c2ccc(N)cc2)no1 [SULFAMETHOXAZOLE]
- fractional inhibitory concentration index (FICI) (Pseudomonas aeruginosa [19]): 0.38
- IC50 [17]: 140 µM
- MIC (Pseudomonas aeruginosa [18]): 500 µM (≈ 127 µg/mL)
- fractional inhibitory concentration index (FICI) (Pseudomonas aeruginosa [20]): 0.38
- fractional inhibitory concentration index (FICI) (Pseudomonas aeruginosa [21]): 0.25
- fractional inhibitory concentration index (FICI) (Pseudomonas aeruginosa [22]): 0.38

SMILES: COc1cc(Cc2cnc(N)nc2N)cc(OC)c1OC [TRIMETHOPRIM]
- IC50 [17]: 88.7 µM
- MIC (Pseudomonas aeruginosa [18]): 110 µM (≈ 31.9 µg/mL)
